Measured values reported in ChEMBL document CHEMBL4270599, “Synthesis of a 3'-C-ethynyl-β-d-ribofuranose purine nucleoside library: Discovery of C7-deazapurine analogs as potent antiproliferative nucleosides” (Eur J Med Chem, 2018).

Legend:
Format in all cases: functional
COLO 205 [1] = assay: Cytotoxicity against human COLO205 cells after 48 hrs by SRB assay; conditions: COLO 205, 48 h; for GI50: read-out: GI50; for CC50: read-out: LC50 (the source's name); for TGI: read-out: TGI
MDA-MB-468 [2] = assay: Growth inhibition of human MDA-MB-468 cells assessed as cell growth at 10^-8 M incubated for 48 hrs by sulforhodamine B assay relative to control; conditions: MDA-MB-468, 48 h, read-out: Activity
SN12C = assay: Growth inhibition of human SN12C cells assessed as cell growth at 10^-4 M incubated for 48 hrs by sulforhodamine B assay relative to control; conditions: read-out: Activity
SF-295 = assay: Growth inhibition of human SF295 cells assessed as cell growth at 10^-8 M incubated for 48 hrs by sulforhodamine B assay relative to control; conditions: SF-295, 48 h, read-out: Activity
HT-29 = assay: Cytotoxicity against human HT-29 cells after 48 hrs by SRB assay; conditions: HT-29, 48 h; for GI50: read-out: GI50; for CC50: read-out: LC50 (the source's name)
CCRF-CEM [3] = assay: Cytotoxicity against human CCRF-CEM cells after 48 hrs by SRB assay; conditions: for GI50: read-out: GI50; for CC50: read-out: LC50 (the source's name)
HCT-15 [4] = assay: Cytotoxicity against human HCT15 cells after 48 hrs by SRB assay; conditions: HCT-15, 48 h; for GI50: read-out: GI50
CCRF-CEM [5] = assay: Growth inhibition of human CCRF-CEM cells assessed as cell growth at 10^-8 M incubated for 48 hrs by sulforhodamine B assay relative to control; conditions: read-out: Activity
Malme-3M = assay: Growth inhibition of human MALME-3M cells assessed as cell growth at 10^-7 M incubated for 48 hrs by sulforhodamine B assay relative to control; conditions: read-out: Activity
BT-549 [6] = assay: Cytotoxicity against human BT549 cells after 48 hrs by SRB assay; conditions: BT-549, 48 h; for GI50: read-out: GI50; for TGI: read-out: TGI
786-0 = assay: Growth inhibition of human 786-0 cells assessed as cell growth at 10^-8 M incubated for 48 hrs by sulforhodamine B assay relative to control; conditions: 786-0, 48 h, read-out: Activity
PC-3 [7] = assay: Cytotoxicity against human PC3 cells after 48 hrs by SRB assay; conditions: PC-3, 48 h; for GI50: read-out: GI50; for TGI: read-out: TGI
HCT-15 [8] = assay: Growth inhibition of human HCT15 cells assessed as cell growth at 10^-7 M incubated for 48 hrs by sulforhodamine B assay relative to control; conditions: HCT-15, 48 h, read-out: Activity
Hs-578T = assay: Cytotoxicity against human Hs 578T cells after 48 hrs by SRB assay; conditions: for GI50: read-out: GI50; for TGI: read-out: TGI; for CC50: read-out: pLC50 (the source's name) (converted)
ACHN = assay: Growth inhibition of human ACHN cells assessed as cell growth at 10^-5 M incubated for 48 hrs by sulforhodamine B assay relative to control; conditions: read-out: Activity
DU-145 = assay: Growth inhibition of human DU145 cells assessed as cell growth at 10^-5 M incubated for 48 hrs by sulforhodamine B assay relative to control; conditions: DU-145, 48 h, read-out: Activity
BT-549 [9] = assay: Growth inhibition of human BT549 cells assessed as cell growth at 10^-8 M incubated for 48 hrs by sulforhodamine B assay relative to control; conditions: BT-549, 48 h, read-out: Activity
COLO 205 [10] = assay: Growth inhibition of human COLO205 cells assessed as cell growth at 10^-8 M incubated for 48 hrs by sulforhodamine B assay relative to control; conditions: COLO 205, 48 h, read-out: Activity
MCF7 [11] = assay: Growth inhibition of human MCF7 cells assessed as cell growth at 10^-6 M incubated for 48 hrs by sulforhodamine B assay relative to control; conditions: MCF7, 48 h, read-out: Activity
OVCAR-5 = assay: Growth inhibition of human OVCAR5 cells assessed as cell growth at 10^-7 M incubated for 48 hrs by sulforhodamine B assay relative to control; conditions: OVCAR-5, 48 h, read-out: Activity
RXF 393 = assay: Growth inhibition of human RXF393 cells assessed as cell growth at 10^-7 M incubated for 48 hrs by sulforhodamine B assay relative to control; conditions: RXF 393, 48 h, read-out: Activity
OVCAR-8 = assay: Cytotoxicity against human OVCAR8 cells after 48 hrs by SRB assay; conditions: OVCAR-8, 48 h; for GI50: read-out: GI50; for CC50: read-out: LC50 (the source's name)
MDA-MB-468 [12] = assay: Growth inhibition of human MDA-MB-468 cells assessed as cell growth at 10^-7 M incubated for 48 hrs by sulforhodamine B assay relative to control; conditions: MDA-MB-468, 48 h, read-out: Activity
MCF7 [13] = assay: Growth inhibition of human MCF7 cells assessed as cell growth at 10^-8 M incubated for 48 hrs by sulforhodamine B assay relative to control; conditions: MCF7, 48 h, read-out: Activity
PC-3 [14] = assay: Growth inhibition of human PC3 cells assessed as cell growth at 10^-6 M incubated for 48 hrs by sulforhodamine B assay relative to control; conditions: PC-3, 48 h, read-out: Activity
PC-3 [15] = assay: Growth inhibition of human PC3 cells assessed as cell growth at 10^-5 M incubated for 48 hrs by sulforhodamine B assay relative to control; conditions: PC-3, 48 h, read-out: Activity
UACC-62 = assay: Growth inhibition of human UACC62 cells assessed as cell growth at 10^-6 M incubated for 48 hrs by sulforhodamine B assay relative to control; conditions: UACC-62, 48 h, read-out: Activity
M14 = assay: Growth inhibition of human M14 cells assessed as cell growth at 10^-5 M incubated for 48 hrs by sulforhodamine B assay relative to control; conditions: M14, 48 h, read-out: Activity
NCI/ADR-RES = assay: Growth inhibition of human NCI/ADR-RES cells assessed as cell growth at 10^-5 M incubated for 48 hrs by sulforhodamine B assay relative to control; conditions: read-out: Activity
BT-549 [16] = assay: Growth inhibition of human BT549 cells assessed as cell growth at 10^-5 M incubated for 48 hrs by sulforhodamine B assay relative to control; conditions: BT-549, 48 h, read-out: Activity
[17] = read-out: pLC50 (the source's name) (converted)
[18] = read-out: LC50 (the source's name)

SMILES: C#C[C@@]1(O)[C@@H](CO)O[C@@H](n2cc(Cl)c3c(N)ncnc32)[C@@H]1O
- GI50 (COLO 205 [1]): 71.2 to 157 nM
- CC50 (COLO 205 [1]): 10000 to 40400 nM
- TGI (COLO 205 [1]): 276 to 521 nM
- growth at 0.01 µM (MDA-MB-468 [2]): 97 to 103%
- growth at 100 µM (SN12C): 1%
- growth at 0.01 µM (SF-295): 82 to 92%
- GI50 (HT-29): 32.2 to 59.1 nM
- CC50 (HT-29): > 100000 nM
- TGI (HT-29; read-out: TGI): 747 to 100000 nM
- GI50 (CCRF-CEM [3]): 239 to 257 nM
- CC50 (CCRF-CEM [3]): > 100000 nM
- TGI (CCRF-CEM [3]; read-out: TGI): > 100000 nM
- TGI (CCRF-CEM [3]; read-out: pTGI): > 100000 nM
- GI50 (HCT-15 [4]): 134 to 152 nM
- TGI (HCT-15 [4]; read-out: TGI): > 100000 nM
- CC50 (HCT-15 [4]; [17]): > 100000 nM
- TGI (HCT-15 [4]; read-out: pTGI (converted)): > 100000 nM
- growth at 0.01 µM (CCRF-CEM [5]): 96 to 97%
- growth at 0.1 µM (Malme-3M): 79 to 80%
- GI50 (BT-549 [6]): 223 to 228 nM
- TGI (BT-549 [6]): 640 to 685 nM
- growth at 0.01 µM (786-0): 80 to 82%
- GI50 (PC-3 [7]): 173 to 211 nM
- CC50 (PC-3 [7]; [18]): > 100000 nM
- TGI (PC-3 [7]): 3520 to 4540 nM
- growth at 0.1 µM (HCT-15 [8]): 57 to 61%
- GI50 (Hs-578T): 463 to 2480 nM
- TGI (Hs-578T): 7010 to 100000 nM
- CC50 (Hs-578T): > 100000 nM
- growth at 10 µM (ACHN): -30%
- growth at 10 µM (DU-145): 1 to 2%
- growth at 0.01 µM (BT-549 [9]): 88 to 95%
- growth at 0.01 µM (COLO 205 [10]): 93 to 96%
- growth at 1 µM (MCF7 [11]): 1 to 4%
- growth at 0.1 µM (OVCAR-5): 72 to 102%
- growth at 0.1 µM (RXF 393): 105 to 110%
- GI50 (OVCAR-8): 10.2 to 33.6 nM
- CC50 (OVCAR-8): > 100000 nM
- TGI (OVCAR-8; read-out: TGI): 730 to 1480 nM
- growth at 0.1 µM (MDA-MB-468 [12]): 82 to 89%
- growth at 0.01 µM (MCF7 [13]): 67 to 75%
- growth at 1 µM (PC-3 [14]): 9 to 11%

SMILES: C#C[C@@]1(O)[C@@H](CO)O[C@@H](n2cc(Br)c3c(N)ncnc32)[C@@H]1O
- GI50 (COLO 205 [1]): 43.6 to 182 nM
- CC50 (COLO 205 [1]): 8040 to 100000 nM
- TGI (COLO 205 [1]): 235 to 903 nM
- growth at 0.01 µM (MDA-MB-468 [2]): 88 to 99%
- growth at 100 µM (SN12C): 1 to 5%
- growth at 0.01 µM (SF-295): 90 to 96%
- GI50 (HT-29): 25.8 to 55.9 nM
- CC50 (HT-29): > 100000 nM
- TGI (HT-29; read-out: TGI): > 100000 nM
- TGI (HT-29; read-out: pTGI (converted)): > 100000 nM
- GI50 (CCRF-CEM [3]): 140 to 285 nM
- CC50 (CCRF-CEM [3]): > 100000 nM
- TGI (CCRF-CEM [3]; read-out: TGI): > 100000 nM
- TGI (CCRF-CEM [3]; read-out: pTGI): > 100000 nM
- GI50 (HCT-15 [4]): 172 to 707 nM
- CC50 (HCT-15 [4]; [18]): > 100000 nM
- TGI (HCT-15 [4]; read-out: TGI): > 100000 nM
- TGI (HCT-15 [4]; read-out: pTGI (converted)): > 100000 nM
- growth at 0.01 µM (CCRF-CEM [5]): 96 to 100%
- growth at 0.1 µM (Malme-3M): 77 to 79%
- GI50 (BT-549 [6]): 147 to 234 nM
- CC50 (BT-549 [6]; [18]): > 100000 nM
- TGI (BT-549 [6]): 536 to 819 nM
- growth at 0.01 µM (786-0): 86 to 91%
- GI50 (PC-3 [7]): 47.7 to 167 nM
- TGI (PC-3 [7]): 8700 to 100000 nM
- CC50 (PC-3 [7]; [17]): > 100000 nM
- growth at 0.1 µM (HCT-15 [8]): 45 to 63%
- GI50 (Hs-578T): 307 to 1350 nM
- TGI (Hs-578T): 52400 to 100000 nM
- CC50 (Hs-578T): > 100000 nM
- growth at 10 µM (ACHN): -7%
- growth at 10 µM (PC-3 [15]): 3%
- growth at 1 µM (UACC-62): 21 to 23%
- growth at 10 µM (M14): 6 to 11%
- growth at 10 µM (DU-145): 7 to 10%
- growth at 0.01 µM (BT-549 [9]): 89 to 103%
- growth at 10 µM (NCI/ADR-RES): -9%
- growth at 0.01 µM (COLO 205 [10]): 95 to 97%
- growth at 1 µM (MCF7 [11]): 3 to 5%
- growth at 0.1 µM (OVCAR-5): 62 to 97%
- growth at 0.1 µM (RXF 393): 81 to 103%
- growth at 10 µM (BT-549 [16]): -44%
- GI50 (OVCAR-8): 13.5 to 62.5 nM
- CC50 (OVCAR-8): > 100000 nM
- TGI (OVCAR-8; read-out: TGI): 1120 nM
- TGI (OVCAR-8; read-out: pTGI (converted)): 1120 nM
- growth at 0.1 µM (MDA-MB-468 [12]): 56 to 87%
- growth at 0.01 µM (MCF7 [13]): 60 to 74%
- growth at 1 µM (PC-3 [14]): 8 to 12%
